Data as given in ChEMBL document CHEMBL1201862, “PubChem BioAssay data set” (2004).
Calls of active or inactive are those of the source.

Columns and labels:
[1] = Luminescence Cell-Based Dose Confirmation HTS to Identify Activators of 5'UTR Stem-Loop Driven Alpha-Synuclein mRNA Translation in H4 Neuroglioblastoma Cells. [Related pubchem assays: 1829 (Project Summary), 1814 (Primary HTS)]; type: functional
[2] = Luminescence Cell-Based Dose Response HTS to Identify Activators of Luciferase Translation or Activity in H4 […] Cells. [Related pubchem assays: 1829 (Project Summary), 1814 (Primary HTS)]; type: functional
H4 = test: Luminescence Cell-Based Dose Response HTS to Identify Activators of 5'UTR Stem-Loop Driven Prion Protein mRNA Translation in H4 Neuroglioblastoma Cells. [Related pubchem assays: 1829 (Project Summary), 1814 (Primary HTS)]; type: functional; settings: Homo sapiens
[3] = molecular target: T1, Heat shock factor protein 1 (Mus musculus, UniProt P38532); test: decrease of HSF1-responsive luciferase luminescence – cell-based, NIH3T3, dose retest, confirmation (AID 2382); type: functional;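 also: NIH3T3 fibroblasts with HSF1-driven luciferase reporter stressed by proteasome inhibitor MG132; luminescence from HSF1-driven luciferase expression after 8 hours of MG132 stress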
T1 sequence (P38532 whole entry): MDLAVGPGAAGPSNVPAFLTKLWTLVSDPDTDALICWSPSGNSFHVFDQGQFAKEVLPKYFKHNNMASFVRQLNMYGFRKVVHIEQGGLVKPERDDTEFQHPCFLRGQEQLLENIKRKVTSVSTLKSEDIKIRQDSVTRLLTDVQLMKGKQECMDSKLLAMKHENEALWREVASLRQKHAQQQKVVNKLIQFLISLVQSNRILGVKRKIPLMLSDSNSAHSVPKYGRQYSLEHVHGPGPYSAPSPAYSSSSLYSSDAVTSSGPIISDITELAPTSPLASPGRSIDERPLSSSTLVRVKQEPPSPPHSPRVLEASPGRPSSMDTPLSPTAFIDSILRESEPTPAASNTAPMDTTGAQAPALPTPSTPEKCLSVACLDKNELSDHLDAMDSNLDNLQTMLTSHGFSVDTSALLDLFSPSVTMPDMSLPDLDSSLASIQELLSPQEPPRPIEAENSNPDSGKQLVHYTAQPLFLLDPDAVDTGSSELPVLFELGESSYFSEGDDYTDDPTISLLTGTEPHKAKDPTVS

Cytochrome P450 2D6 = Cytochrome P450 2D6 (Homo sapiens, UniProt P10635);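 also: CYP2D6 member of a cytochrome P450 panel assay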
Cytochrome P450 3A4 = Cytochrome P450 3A4 (Homo sapiens, UniProt P08684);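 also: CYP3A4 tested as one member of a cytochrome P450 panel screen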
Cytochrome P450 2C9 = Cytochrome P450 2C9 (Homo sapiens, UniProt P11712)
Paired box protein Pax-8 = Paired box protein Pax-8 (Homo sapiens, UniProt Q06710); test: PAX8 transcriptional activity inhibition in RMG-I – RMG-I cells, luciferase, cherry-pick, dose response (AID 687027); type: functional, cell-based;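 also: luciferase reporter driven by Pax8 target thyroperoxidase promoter measured by SteadyGlo luminescence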
[4] = molecular target: T1, Heat shock factor protein 1; test: enhancement of HSF1-driven luciferase signal – cell-based, NIH3T3, luminescence, dose retest, confirmation (AID 435004); type: functional;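 also: stress induced by proteasome inhibitor MG132 added 30 min after compound; luciferase reporter driven by HSF1 response element in NIH3T3 cells; actives raise luminescence as potentiators of the MG132 stress response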
[5] = Luminescence Cell-Based Dose Retest to Confirm Inhibitors of Cancer Stem Cells. [Related pubchem assays (depositor defined):AID2717, AID2721]; type: functional; settings: Homo sapiens
Protein skinhead-1 = molecular target: T2, Protein skinhead-1 (Caenorhabditis elegans, UniProt P34707); type: functional
T2 sequence (P34707 whole entry): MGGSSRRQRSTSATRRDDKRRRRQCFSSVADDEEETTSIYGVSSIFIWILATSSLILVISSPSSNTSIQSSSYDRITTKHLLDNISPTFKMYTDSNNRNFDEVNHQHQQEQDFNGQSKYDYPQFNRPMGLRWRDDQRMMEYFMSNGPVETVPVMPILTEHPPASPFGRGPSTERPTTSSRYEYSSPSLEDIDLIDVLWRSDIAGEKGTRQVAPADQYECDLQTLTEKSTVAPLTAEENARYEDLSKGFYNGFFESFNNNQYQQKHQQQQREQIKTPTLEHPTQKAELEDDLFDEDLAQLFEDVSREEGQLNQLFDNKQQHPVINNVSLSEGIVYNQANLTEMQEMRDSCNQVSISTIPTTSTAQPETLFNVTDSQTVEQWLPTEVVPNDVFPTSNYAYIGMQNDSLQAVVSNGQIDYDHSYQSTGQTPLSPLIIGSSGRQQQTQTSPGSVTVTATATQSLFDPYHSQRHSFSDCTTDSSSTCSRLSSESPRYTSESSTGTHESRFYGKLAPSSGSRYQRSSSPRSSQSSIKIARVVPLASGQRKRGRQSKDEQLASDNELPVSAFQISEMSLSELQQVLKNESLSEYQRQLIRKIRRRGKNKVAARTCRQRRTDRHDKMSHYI

[6] = viability of uninfected HEp-2 cells – cell-based, HTS, cytotoxicity control for RSV inhibitor project, dose response (AID 2410); type: functional; settings: human respiratory syncytial virus
[7] = test system: Streptococcus sp. 'group A'; test: Streptococcus pyogenes SK(-)GAS viability under kanamycin – luminescence, BacTiterGlo, confirmation, counter-screen for streptokinase expression inhibitor project, dose response (AID 1900); type: functional, organism-based
Streptokinase A = molecular target: T3, Streptokinase A (Streptococcus pyogenes serotype M1, UniProt P10520); test: viability-normalized secreted streptokinase activity reduction – plasminogen activation absorbance, OD405, dose response (AID 1914); type: functional, Streptococcus pyogenes M1 GAS;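 also: secreted streptokinase activity via plasminogen activation per viability signal from cell pellet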
T3 sequence (P10520 whole entry): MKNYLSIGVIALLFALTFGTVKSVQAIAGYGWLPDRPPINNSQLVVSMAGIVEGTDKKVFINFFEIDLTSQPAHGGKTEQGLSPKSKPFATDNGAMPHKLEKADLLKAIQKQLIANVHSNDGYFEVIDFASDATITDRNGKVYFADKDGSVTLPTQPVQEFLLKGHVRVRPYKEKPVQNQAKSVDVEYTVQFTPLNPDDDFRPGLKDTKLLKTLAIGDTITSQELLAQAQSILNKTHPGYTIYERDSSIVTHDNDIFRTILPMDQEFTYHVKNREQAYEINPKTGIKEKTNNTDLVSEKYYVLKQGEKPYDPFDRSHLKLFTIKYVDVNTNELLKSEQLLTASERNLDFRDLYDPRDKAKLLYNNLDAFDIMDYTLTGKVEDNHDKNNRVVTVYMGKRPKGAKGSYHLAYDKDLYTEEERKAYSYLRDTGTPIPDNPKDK

Streptococcus = test: GAS UMAA2166 growth inhibition – luminescence, BacTiterGlo, counter-screen for streptokinase expression inhibitor project, dose response (AID 1915); type: functional, organism-based;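 also: potency for reduction of bacterial viability or growth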
Cytochrome P450 2C19 = Cytochrome P450 2C19 (Homo sapiens, UniProt P33261); test: Cytochrome panel assay with activity outcomes. Panel member name: p450-cyp2c19 Compounds with AC50 equal or less than 10 uM are considered active; type: functional; settings: read-out: AC50
Cytochrome P450 1A2 = molecular target: T4, Cytochrome P450 1A2 (Homo sapiens, UniProt P05177);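 also: PubChem cytochrome P450 panel assay, CYP1A2 panel member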
T4 sequence (P05177 whole entry): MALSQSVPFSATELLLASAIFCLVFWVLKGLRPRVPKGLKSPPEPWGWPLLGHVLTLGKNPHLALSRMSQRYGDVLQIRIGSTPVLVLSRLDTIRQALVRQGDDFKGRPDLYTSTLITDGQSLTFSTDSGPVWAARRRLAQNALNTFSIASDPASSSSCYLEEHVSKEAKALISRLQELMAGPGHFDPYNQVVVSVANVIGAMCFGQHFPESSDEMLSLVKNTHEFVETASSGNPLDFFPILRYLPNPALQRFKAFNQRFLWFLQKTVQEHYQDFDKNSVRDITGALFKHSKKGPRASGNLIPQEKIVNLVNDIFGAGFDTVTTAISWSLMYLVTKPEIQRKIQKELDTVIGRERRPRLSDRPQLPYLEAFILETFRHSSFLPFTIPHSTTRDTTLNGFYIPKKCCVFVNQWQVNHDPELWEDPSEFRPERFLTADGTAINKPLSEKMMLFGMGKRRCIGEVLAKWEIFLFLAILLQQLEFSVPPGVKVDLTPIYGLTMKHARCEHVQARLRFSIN

Sequence of Cytochrome P450 2D6 (P10635 whole entry): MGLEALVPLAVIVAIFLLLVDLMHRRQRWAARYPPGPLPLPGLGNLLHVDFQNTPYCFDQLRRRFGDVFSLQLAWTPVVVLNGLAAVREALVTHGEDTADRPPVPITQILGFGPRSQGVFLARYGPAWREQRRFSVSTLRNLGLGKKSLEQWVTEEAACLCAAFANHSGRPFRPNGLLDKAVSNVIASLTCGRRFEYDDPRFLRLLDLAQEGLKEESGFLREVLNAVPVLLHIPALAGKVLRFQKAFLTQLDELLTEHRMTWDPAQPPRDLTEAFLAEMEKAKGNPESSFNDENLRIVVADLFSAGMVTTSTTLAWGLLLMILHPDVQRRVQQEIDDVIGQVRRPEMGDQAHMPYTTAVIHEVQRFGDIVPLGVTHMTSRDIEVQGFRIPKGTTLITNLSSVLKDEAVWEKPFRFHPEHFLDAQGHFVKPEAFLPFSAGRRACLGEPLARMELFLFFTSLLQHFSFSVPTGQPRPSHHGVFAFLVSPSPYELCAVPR
Sequence of Cytochrome P450 3A4 (P08684 whole entry): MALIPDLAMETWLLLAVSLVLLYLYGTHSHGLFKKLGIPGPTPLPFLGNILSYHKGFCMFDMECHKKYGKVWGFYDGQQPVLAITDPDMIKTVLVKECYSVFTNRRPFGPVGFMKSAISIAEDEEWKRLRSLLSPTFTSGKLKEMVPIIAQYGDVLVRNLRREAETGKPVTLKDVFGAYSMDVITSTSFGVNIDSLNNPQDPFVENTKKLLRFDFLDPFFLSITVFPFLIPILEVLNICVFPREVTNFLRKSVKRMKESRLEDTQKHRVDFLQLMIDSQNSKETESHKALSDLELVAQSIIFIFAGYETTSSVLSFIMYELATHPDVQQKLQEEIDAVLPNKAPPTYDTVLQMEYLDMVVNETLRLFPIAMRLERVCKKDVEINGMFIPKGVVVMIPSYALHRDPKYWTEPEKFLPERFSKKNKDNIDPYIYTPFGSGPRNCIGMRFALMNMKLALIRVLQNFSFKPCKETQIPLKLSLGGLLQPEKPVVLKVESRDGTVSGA
Sequence of Paired box protein Pax-8 (Q06710 whole entry): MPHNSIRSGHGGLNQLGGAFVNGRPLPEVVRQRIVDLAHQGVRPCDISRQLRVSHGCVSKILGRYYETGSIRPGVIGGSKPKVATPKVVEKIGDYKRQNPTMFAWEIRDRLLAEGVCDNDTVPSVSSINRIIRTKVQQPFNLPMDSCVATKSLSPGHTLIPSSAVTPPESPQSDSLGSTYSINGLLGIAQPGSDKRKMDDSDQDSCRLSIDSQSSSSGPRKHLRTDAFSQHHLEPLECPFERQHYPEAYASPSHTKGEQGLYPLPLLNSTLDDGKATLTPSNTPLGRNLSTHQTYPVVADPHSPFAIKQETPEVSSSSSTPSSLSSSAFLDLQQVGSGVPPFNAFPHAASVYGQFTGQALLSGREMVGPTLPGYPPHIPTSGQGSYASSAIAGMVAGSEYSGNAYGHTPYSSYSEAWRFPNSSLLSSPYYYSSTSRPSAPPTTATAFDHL
Sequence of Cytochrome P450 2C9 (P11712 whole entry): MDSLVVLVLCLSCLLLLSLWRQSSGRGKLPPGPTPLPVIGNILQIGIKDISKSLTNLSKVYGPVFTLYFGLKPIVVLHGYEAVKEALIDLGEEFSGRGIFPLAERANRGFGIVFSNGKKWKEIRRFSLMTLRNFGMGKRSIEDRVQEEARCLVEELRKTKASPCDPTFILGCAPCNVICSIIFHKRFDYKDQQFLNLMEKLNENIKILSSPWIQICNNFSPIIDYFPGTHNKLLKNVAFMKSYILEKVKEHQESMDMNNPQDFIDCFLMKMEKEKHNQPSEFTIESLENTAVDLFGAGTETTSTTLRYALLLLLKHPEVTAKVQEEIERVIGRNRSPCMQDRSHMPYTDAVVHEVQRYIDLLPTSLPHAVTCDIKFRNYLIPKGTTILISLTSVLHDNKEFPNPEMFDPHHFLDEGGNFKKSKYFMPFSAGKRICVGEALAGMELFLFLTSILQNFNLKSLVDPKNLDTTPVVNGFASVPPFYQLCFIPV
Sequence of Cytochrome P450 2C19 (P33261 whole entry): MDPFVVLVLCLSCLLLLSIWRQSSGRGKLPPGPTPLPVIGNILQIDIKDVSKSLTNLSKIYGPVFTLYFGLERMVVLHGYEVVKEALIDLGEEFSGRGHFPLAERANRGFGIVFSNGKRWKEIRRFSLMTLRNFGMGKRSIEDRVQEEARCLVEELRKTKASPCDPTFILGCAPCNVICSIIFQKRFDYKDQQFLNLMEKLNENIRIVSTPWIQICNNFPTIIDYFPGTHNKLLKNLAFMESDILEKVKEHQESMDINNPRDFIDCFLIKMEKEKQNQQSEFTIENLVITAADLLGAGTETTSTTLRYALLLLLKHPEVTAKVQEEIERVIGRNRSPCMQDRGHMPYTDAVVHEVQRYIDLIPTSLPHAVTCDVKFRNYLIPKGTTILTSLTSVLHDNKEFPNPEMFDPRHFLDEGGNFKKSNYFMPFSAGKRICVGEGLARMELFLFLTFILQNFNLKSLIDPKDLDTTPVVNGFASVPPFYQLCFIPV

## O=S(=O)(Nc1ccc2c(c1)OCCO2)c1cccs1
[1]
  EC50: 14.8 µM (active)
[2]
  EC50: 10.9 µM (active)
H4
  EC50: 10.8 µM (active)
[3]
  EC50: 2.91 µM (active)

## CN(Cc1ccco1)c1ncnc2ccc(-c3cccc(C#N)c3)cc12
Cytochrome P450 2D6
  AC50: 25.1 µM (inconclusive)
Cytochrome P450 3A4
  AC50: 31.6 µM (inconclusive)
Cytochrome P450 2C9
  AC50: 1.58 µM (inconclusive)

## COC(=O)[C@@]1(Cc2ccccc2)[C@H]2c3cc(C(=O)N4CCCC4)n(Cc4ccc(OC)c(OC)c4)c3C[C@H]2CN1C(=O)c1ccccc1
Cytochrome P450 2D6
  AC50: 31.6 µM (inconclusive)

## O=S(=O)(NC1CCCCC1N1CCN(c2ccccc2F)CC1)c1ccccc1 (stereo not given)
Paired box protein Pax-8
  AC50: 23.1 µM (active)

## COc1cc(C2C3=C(COC3=O)Oc3cc4c(cc32)OCO4)cc(OC)c1O (stereo not given)
Paired box protein Pax-8
  AC50: 1.74 µM (active)

## Oc1ccc(C2C(c3ccccc3)=NN=C(c3ccccc3F)N2O)c(O)c1 (stereo not given)
[1]
  EC50: 95.8 µM (active)
[2]
  EC50: 72.3 µM (active)
H4
  EC50: > 120 µM (not active)

## CN(C)c1nc(N)nc(CSc2nnnn2-c2ccc(F)cc2)n1
[4]
  EC50: > 260 µM (inactive)

## O=C(Nc1nc(-c2cccc3ccccc23)cs1)c1ccc2c(c1)S(=O)(=O)c1ccccc1C2=O
[5]
  AC50: 3.99 µM (active)

## Cc1ccc(F)c(C2C3C=CCC(c4cccc(-c5ccc(N(C)C)cc5)c4)C3C(=O)N2Cc2ccccc2)c1 (stereo not given)
Protein skinhead-1
  IC50: > 100 µM (inactive)

## COc1cccc(C(=O)N(Cc2ccccc2)Cc2cc3cc4c(cc3nc2O)OCCO4)c1
Cytochrome P450 2D6
  AC50: 0.224 µM (inconclusive)

## O=C1CN(c2nc(-c3cccs3)nc3sc4c(c23)CCCC4)CCN1
[6]
  CC50: > 50 µM (active)
[1]
  EC50: 9.49 µM (active)
[2]
  EC50: 15.2 µM (active)
H4
  EC50: 21 µM (active)

## COc1ccccc1CNCCCCCCNCCCCCCCCNCCCCCCNCc1ccccc1OC [METHOCTRAMINE]
Cytochrome P450 2D6
  AC50: 31.6 µM (inconclusive)
Cytochrome P450 3A4
  AC50: 10 µM (inconclusive)

## C=CCSc1n[nH]c(-c2ccccc2)n1
[1]
  EC50: 9.22 µM (active)
[2]
  EC50: 8.06 µM (active)
H4
  EC50: 75.3 µM (active)

## CCN(CC)S(=O)(=O)c1cc([N+](=O)[O-])ccc1NNC(=O)Nc1ccccc1OC
[4]
  EC50: > 260 µM (inactive)

## C/C(=N\NC(=O)c1ccoc1C)c1cccc2ccccc12
[4]
  EC50: > 260 µM (inactive)

## c1ccc(N2OCC3Cn4c(nc5ccccc54)C32)cc1 (stereo not given)
[1]
  EC50: 30.3 µM (active)
[2]
  EC50: 8.69 µM (active)
H4
  EC50: 44.2 µM (active)

## COc1ccccc1NC(=O)CSc1nnc(-c2ccncc2)o1
Protein skinhead-1
  IC50: > 100 µM (inactive)

## O=C(Nc1cccc(-c2csc(Nc3ccccc3)n2)c1)c1ccccc1
[5]
  AC50: 2.96 µM (active)
Protein skinhead-1
  IC50: > 100 µM (inactive)

## CCCC12CN3CC(C)(CN(C1)C3c1ccc3c(c1)OCO3)C2=O (stereo not given)
[4]
  EC50: > 260 µM (inactive)

## COc1ccc(NC(=O)CSc2n[nH]c(N)n2)cc1OC
[1]
  EC50: > 120 µM (not active)
[2]
  EC50: > 120 µM (not active)
H4
  EC50: > 120 µM (not active)

## O=C1c2ccccc2CCc2ccc(Br)cc21
Protein skinhead-1
  IC50: 35.6 µM (active)

## CC1(C(=O)NS(=O)(=O)c2cccs2)CCN1C(=O)Cc1ccc(-c2ccccc2)cc1 (stereo not given)
Protein skinhead-1
  IC50: > 100 µM (inactive)

## C/C(=C\C(=O)c1ccc(Br)cc1)NCc1ccccc1
[1]
  EC50: > 120 µM (not active)
[2]
  EC50: 9.58 µM (active)
H4
  EC50: 90.3 µM (active)

## NCCSc1nc2ccccc2s1
Cytochrome P450 2D6
  AC50: 3.98 µM (inconclusive)

## COC(=O)C1=C(c2ccc(F)cc2OCc2ccccc2)C[C@@H]2CC[C@H]1N2C(=O)NCc1ccc2[nH]ccc2c1
Paired box protein Pax-8
  AC50: 18.2 µM (active)

## COC(=O)c1ccc(CC2(C)C(=O)Nc3ccc(-c4cccc(C(F)(F)F)c4)cc32)o1 (stereo not given)
Protein skinhead-1
  IC50: 79.3 µM (inactive)

## Oc1c2c(nc3cc(-c4cccc(F)c4)nn13)CCC2
[4]
  EC50: > 260 µM (inactive)

## CC1(C)CC(=O)C(C2C3=C(CC(C)(C)CC3=O)OC3=C2C(=O)CC(C)(C)C3)=C(O)C1
[4]
  EC50: > 260 µM (inactive)

## CC(NC(=O)c1cc(COc2ccccc2)on1)c1nccs1 (stereo not given)
Protein skinhead-1
  IC50: > 100 µM (inactive)

## COc1cc(OC)c(OC)cc1/C=N\CC1(c2ccccc2)CCCC1
Cytochrome P450 2D6
  AC50: 28.2 µM (inconclusive)
Cytochrome P450 3A4
  AC50: 25.1 µM (inconclusive)

## Cn1c(S)nnc1Cc1c[nH]c2ccccc12
Protein skinhead-1
  IC50: > 100 µM (inactive)

## FC(F)(F)c1ccc(-c2noc(CN3CCCN(C4CCCCC4)CC3)n2)cc1
[5]
  AC50: 1.79 µM (active)

## CCOc1ccc(C(=O)NC(=S)N(Cc2ccccc2)Cc2ccccc2)cc1
[7]
  EC50: 2.46 µM (active)
Streptokinase A
  EC50: > 150 µM (not active)
Streptococcus
  EC50: 7.11 µM (active)
Cytochrome P450 2D6
  AC50: 6.31 µM (inconclusive)

## Cc1ccccc1-c1cncnc1N1CCN(C)CC1
Cytochrome P450 2C19
  AC50: 39.8 µM (inconclusive)
Cytochrome P450 1A2
  AC50: 15.8 µM (inconclusive)

## Cc1ccc(NN/C=C2\C(=O)NC(=O)N(c3ccccc3)C2=O)cc1
[5]
  AC50: 2.35 µM (active)

## O=C(/C=C\Nc1ccc(Br)cc1)c1cccnc1
Protein skinhead-1
  IC50: 71.4 µM (inactive)

## Cc1ccc(-c2noc(CCC(=O)Nc3cc(C)ccn3)n2)cc1
[4]
  EC50: > 260 µM (inactive)

## Cc1cc(NC(=O)COc2cccc(Oc3ccccc3)c2)no1
[1]
  EC50: > 120 µM (not active)
[2]
  EC50: > 120 µM (not active)
H4
  EC50: > 120 µM (not active)
